From the supplement of paper PMC10307832

Assays:
Test in all cases: relative viability (nuclei count vs DMSO), 5 days (fraction); higher = more cells survive
[1] = compound: CC1=CC(=CC=C1)NC2=NC(=CS2)C3=CC=NC=C3 + C[C@@H](Oc1cc(-c2cnn(C3CCNCC3)c2)cnc1N)c1c(Cl)ccc(F)c1Cl [Crizotinib] (partner 1 µM)
Procedure, shortened: (§1)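 After 5 days of treatment, lung cancer cells in 1536-well plates were fixed and stained in a single step (final 0.05% Triton X-100, 1% formaldehyde, 1 ug/ml Hoechst) and their nuclei counted on 4× images. Treatment had been applied by pin tool the day after seeding as one drug alone or as a fixed anchor-drug dose with five library-drug doses (not always all listed) in √10 steps. Relative viability is the nuclei count of treated wells divided by that of vehicle wells, and values are medians of duplicate plates.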

[2] = compound: CC1=CC(=CC=C1)NC2=NC(=CS2)C3=CC=NC=C3 + C[C@]1(O)C[C@@H](c2nc(-c3ccc4ccc(-c5ccccc5)nc4c3)c3c(N)nccn32)C1 [Linsitinib] (partner 1 µM)
Procedure, shortened: as §1

[3] = compound: CC1=CC(=CC=C1)NC2=NC(=CS2)C3=CC=NC=C3 + COc1cc2c(Oc3ccc(NC(=O)C4(C(=O)Nc5ccc(F)cc5)CC4)cc3F)ccnc2cc1OCCCN1CCOCC1 [Foretinib] (partner 0.25 µM)
Procedure, shortened: as §1

[4] = compound: Cc1ccc(NC(=O)c2ccc(CN3CCN(C)CC3)cc2)cc1Nc1nc(-c2cccnc2)cs1 [Masitinib] + CS(=O)(=O)N1CCN(Cc2cc3nc(-c4cccc5[nH]ncc45)nc(N4CCOCC4)c3s2)CC1 [Pictilisib] (partner 1 µM)
Procedure, shortened: as §1

Row | Cell Line | relative viability ([1]; first compound 0.08 µM) | relative viability ([1]; first compound 0.253 µM) | relative viability ([1]; first compound 0.8 µM) | relative viability ([1]; first compound 2.53 µM) | relative viability ([1]; first compound 8 µM) | relative viability ([2]; first compound 0.08 µM) | relative viability ([2]; first compound 0.253 µM) | relative viability ([2]; first compound 0.8 µM) | relative viability ([2]; first compound 2.53 µM) | relative viability ([2]; first compound 8 µM) | relative viability ([3]; first compound 0.08 µM) | relative viability ([3]; first compound 0.253 µM) | relative viability ([3]; first compound 0.8 µM) | relative viability ([3]; first compound 2.53 µM) | relative viability ([3]; first compound 8 µM) | relative viability ([4]; first compound 0.01 µM) | relative viability ([4]; first compound 0.03162 µM) | relative viability ([4]; first compound 0.1 µM) | relative viability ([4]; first compound 0.3162 µM) | relative viability ([4]; first compound 1 µM)
1 | HCC-366 | 0.346 | 0.387 | 0.351 | 0.451 | 0.638 | 0.454 | 0.593 | 0.501 | 0.563 | 0.399 | 0.859 | 0.89 | 0.883 | 0.885 | 0.9 | 0.119 | 0.0994 | 0.131 | 0.115 | 0.138
2 | NCI-H1793 | – | – | – | – | – | – | 0.763 | 0.92 | 0.753 | 0.825 | 0.65 | 0.663 | 0.573 | 0.64 | 0.629 | 0.455 | 0.318 | 0.427 | 0.381 | 0.338
3 | NCI-H1623 | – | – | – | – | – | – | – | – | – | – | 0.836 | 0.729 | 0.776 | 0.699 | 0.824 | – | – | – | – | –
4 | NCI-H2342 | – | – | – | – | – | – | – | – | – | – | 0.889 | 1.03 | 0.949 | 1.08 | 1.14 | – | – | – | – | –
5 | ChaGo-K-1 | 1.08 | 1.07 | 1.14 | 1.07 | 1.15 | – | – | – | – | – | 0.977 | 0.938 | 0.931 | 0.902 | 0.85 | 0.929 | 0.466 | 0.929 | 0.823 | 0.598
6 | HCC-44 | 0.704 | 0.585 | 0.651 | 0.722 | 0.691 | 0.59 | 0.497 | 0.486 | 0.539 | 0.662 | – | – | – | – | – | 0.633 | 0.436 | 0.59 | 0.509 | 0.543
7 | NCI-H2170 | 1.11 | 1.13 | 1.09 | 1.09 | 1.05 | – | – | – | – | – | 0.975 | 1.05 | 0.986 | 0.976 | 0.893 | 0.32 | 0.28 | 0.299 | 0.271 | 0.301
8 | NCI-H1650 | 0.946 | 0.728 | 0.83 | 0.919 | 1.03 | – | – | – | – | – | 1.13 | 1.13 | 1.04 | 1.22 | 1.13 | 0.53 | 0.501 | 0.583 | 0.548 | 0.535
9 | NCI-H1395 | – | – | – | – | – | 0.999 | 0.949 | 1.01 | 0.932 | 0.903 | 0.859 | 0.918 | 0.933 | 0.958 | 1 | 0.695 | 0.577 | 0.645 | 0.565 | 0.58
10 | SW 900 | – | – | – | – | – | – | – | – | – | – | 1.05 | 0.89 | 0.797 | 0.756 | 0.851 | – | – | – | – | –
11 | NCI-H1792 | 0.99 | 0.767 | 0.886 | 0.815 | 0.947 | 0.322 | 0.33 | 0.389 | 0.377 | 0.398 | – | – | – | – | – | 0.277 | 0.209 | 0.288 | 0.197 | 0.225
